Assays:
[1] = tested on: rMIF-induced cell surface ICAM-1 expression in PBMCs; assay: Cell surface ELISA of ICAM-1 expression in stimulated PBMC culture; assay type: cell-based, Human; conditions: for % change in ICAM-1 expression with ibudilast: normalized to no stimulant levels, n = 2
Protocol: (§1) In order to determine whether ibudilast antagonized MIF activity, a peripheral blood mononuclear cell (PBMC) culture model was used. Human PBMCs were isolated by Ficoll gradient. Cells were plated in a 96-well tissue culture plate in RPMI medium without serum and incubated overnight to achieve quiescence. They were then treated with 0.1% DMSO (vehicle) or ibudilast at 10 μM, one hour prior to stimulation with recombinant human MIF (0.8, 8, or 80 nM) or LPS (10 ng/mL). 9 hours post-stimulation, the adherent cells were fixed and analyzed for expression of […] adhesion molecule-1 (ICAM-1) and vascular cell adhesion molecule-1 (VCAM-1) via cell surface enzyme linked immunosorbent assay (ELISA).

[2] = tested on: rMIF-induced cell surface VCAM-1 expression in PBMCs; assay: Cell surface ELISA of VCAM-1 expression in stimulated PBMC culture; assay type: cell-based, Human; conditions: for % change in VCAM-1 expression with ibudilast: normalized to no stimulant levels, n = 2
Protocol: as §1

[3] = 10 μM ibudilast 1 h before stimulant, LPS 10 ng/mL, 9 hours post-stimulation
[4] = 10 μM ibudilast 1 h before stimulant, MIF 0.8 nM, 9 hours post-stimulation
[5] = 10 μM ibudilast 1 h before stimulant, MIF 8 nM, 9 hours post-stimulation
[6] = 10 μM ibudilast 1 h before stimulant, MIF 80 nM, 9 hours post-stimulation
[7] = 10 μM ibudilast, No Stimulant (quiescent cells)
[8] = 10 μM ibudilast, recombinant human MIF stimulation

CC(C)C(=O)c1c(C(C)C)nn2ccccc12 [ibudilast, 3-isobutyryl-2-isopropylpyrazolo[1,5-a]pyridine]
% change in ICAM-1 expression with ibudilast [1, 3]: 74.5% | % change in ICAM-1 expression with ibudilast [1, 4]: −2.5% | % change in ICAM-1 expression with ibudilast [1, 5]: −0.95% | % change in ICAM-1 expression with ibudilast [1, 6]: −1.3% | effect on LPS induction of ICAM-1 (in words) ([1]; 10 μM ibudilast, LPS 10 ng/mL): not significantly affected | % change in ICAM-1 expression with ibudilast [1, 7]: 30.9% | effect on recombinant MIF-induced expression of ICAM-1 (in words) [1, 8]: antagonizes | % change in VCAM-1 expression with ibudilast [2, 3]: −1.5% | % change in VCAM-1 expression with ibudilast [2, 4]: −2.9% | % change in VCAM-1 expression with ibudilast [2, 5]: 4.4% | % change in VCAM-1 expression with ibudilast [2, 6]: 5.4% | effect on LPS induction of VCAM-1 (in words) ([2]; 10 μM ibudilast, LPS 10 ng/mL): not significantly affected | % change in VCAM-1 expression with ibudilast [2, 7]: 95.1% | effect on recombinant MIF-induced expression of VCAM-1 (in words) [2, 8]: antagonizes

Reference: patent US7622256B2, “Method for selecting compounds that modulate MIF-induced expression of ICAM-1 and/or VCAM-1” (Avigen, Inc., priority 2006, dated 2009)
